What was measured:
[1] = molecular target: T1, mouse PPARγ ligand-binding site (GAL4 chimeric protein, pM-mPPARγ) (Mus musculus, UniProt P37238); assay: PPARγ ligand activity (GAL4-PPARγ chimera luciferase reporter assay in CV-1 cells); type: cell-based; conditions: for PPARγ ligand activity: specific activity relative to untreated control (DMSO = 1.00), CV-1 cells, 24 h
T1 construct: expressed in transfected cells; host or cells: CV-1 cells (African green monkey kidney)
T1 sequence (P37238 174-475 isoform P37238-2): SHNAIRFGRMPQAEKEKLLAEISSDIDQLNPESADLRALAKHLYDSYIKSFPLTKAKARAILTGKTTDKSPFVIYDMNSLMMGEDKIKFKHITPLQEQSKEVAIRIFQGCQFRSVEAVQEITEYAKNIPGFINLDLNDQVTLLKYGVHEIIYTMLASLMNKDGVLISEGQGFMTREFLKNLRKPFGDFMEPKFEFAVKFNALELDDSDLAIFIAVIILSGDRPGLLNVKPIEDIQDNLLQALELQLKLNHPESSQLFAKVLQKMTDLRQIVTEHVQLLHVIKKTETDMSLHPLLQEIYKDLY
Method: CV-1 cells (cultured cells derived from male African green monkey kidney) were seeded at 6×10^3 cells/well into a 96-well culture plate and cultured at 37° C. for 24 hours under 5% CO2 conditions. The medium used was DMEM (Dulbecco's Modified Eagle Medium; GIBCO) containing 10% FBS (fetal bovine serum), 10 ml/L penicillin/streptomycin solution (5000 IU/ml and 5000 μg/ml, respectively; GIBCO), and 37 mg/L ascorbic acid (Wako Pure Chemical Industries, Ltd.). The cells were washed with OPTI-MEM (GIBCO) and then transfected with pM-mPPARγ and 4×UASg-luc by use of Lipofectamine plus (GIBCO). […] The 4×UASg-luc is a reporter plasmid in which four copies of the upstream activating sequence of GAL4 (UASg) are incorporated upstream of a luciferase gene. Approximately 24 hours after transfection, the medium was replaced with a sample-containing medium (n=4), followed by culture for additional 24 hours. The sample dissolved in dimethyl sulfoxide (DMSO) or DMSO used as an untreated control was added at 1/1000 of the volume to the medium. The cells were washed with Ca- and Mg-containing phosphate-buffered saline (PBS+). Then, Luclite (Packard) was added thereto, and the luminescence intensity of luciferase was measured with a TopCount microplate scintillation/luminescence counter (Packard).
pM (plasmid from which PPARγ ligand-binding site gene was removed) was used as a control group instead of the pM-mPPARγ and subjected to measurement in the same way as for the measurement group. The ratio (measurement group/control group) of the average luminescence intensity values (n=4) between the measurement and control groups was calculated for each sample. Specific activity relative to the untreated control was used as the PPARγ ligand activity of the sample.

rats = assay: Toxicity test on coumaperine, oral administration; type: in vivo; conditions: 2000 mg/kg of body weight
Method: A toxicity test was conducted on the coumaperine of the present invention.
Coumaperine was orally administered at 2000 mg/kg of body weight to rats. […] Thus, the coumaperine was confirmed to have no or exceedingly low toxicity.

O=C(/C=C/C=C/c1ccc(O)cc1)N1CCCCC1 [Coumaperine, N-5-(4-hydroxyphenyl)-2E,4E-pentadienoyl piperidine]
PPARγ ligand activity, concentration dependence (in words) ([1]; 0.5 to 50 μg/ml, Table 1): concentration-dependent PPARγ ligand activity
PPARγ ligand activity ([1]; concentration added 0.5 μg/ml): 1.05
PPARγ ligand activity ([1]; concentration added 1 μg/ml): 1.07
PPARγ ligand activity ([1]; concentration added 2 μg/ml): 1.24
PPARγ ligand activity ([1]; concentration added 5 μg/ml): 1.78
PPARγ ligand activity ([1]; concentration added 10 μg/ml): 2.07
PPARγ ligand activity ([1]; concentration added 20 μg/ml): 2.53
PPARγ ligand activity ([1]; concentration added 30 μg/ml): 2.38
PPARγ ligand activity ([1]; concentration added 50 μg/ml): 2.44
death cases (rats): no death case was observed
toxic conditions (rats): toxic conditions were not particularly observed

From patent US20080132544A1, “Peroxisome Proliferator-Activated Receptor Ligand” (KANEKA CORPORATION, priority 2004, published 2008)
